Laboratory results published in US20120083522A1, “MODULATION OF INFLAMMATORY RESPONSES BY FACTOR XI” (Isis Pharmaceuitcals, inc., priority 2009, published 2012).
In the oligonucleotide strings, read from the 5' end, every base follows the letter of its sugar. An asterisk marks phosphorothioate; unmarked linkages are phosphodiester. Other units and linkages are bracketed, terminal groups are in braces. A string of capitals states the bases alone. e = 2'-O-(2-methoxyethyl) (MOE); [5mC] = 5-methylcytosine; d = 2'-deoxy (DNA)

Columns and labels:
human Factor XI mRNA = test: Dose-dependent inhibition and IC50 in HepG2 cells, microwalk gapmers, electroporation (Example 16); format: cell-based
Method: These gapmers were tested at various doses in HepG2 cells. Cells were plated at a density of 20,000 cells per well and transfected using electroporation with 375 nM, 750 nM, 1,500 nM, 3,000 nM, 6,000 nM and 12,000 nM concentrations of antisense oligonucleotide, as specified in Table 54. After a treatment period of approximately 16 hours, RNA was isolated from the cells and Factor XI mRNA levels were measured by quantitative real-time PCR. Human Factor XI primer probe set RTS 2966 was used to measure mRNA levels. Factor XI mRNA levels were adjusted according to total RNA content, as measured by RIBOGREEN. Results are presented as percent inhibition of Factor XI, relative to untreated control cells.
ISIS 416850, ISIS 416858, ISIS 445522, and ISIS 445531 (see Table 52 above) were re-tested in vitro along with the microwalk gapmers under the same conditions described above.
The chimeric antisense oligonucleotides in Table 53 were designed as 3-8-3 MOE, 4-8-4 MOE, 2-10-2 MOE, 3-10-3 MOE, or 4-10-4 MOE gapmers. The 3-8-3 gapmer is 14 nucleotides in length, wherein the central gap segment is comprised of eight 2′-deoxynucleotides and is flanked on both sides (in the 5′ and 3′ directions) by wings comprising three nucleotides each. The 4-8-4 gapmer is 16 nucleotides in length, wherein the central gap segment is comprised of eight 2′-deoxynucleotides and is flanked on both sides (in the 5′ and 3′ directions) by wings comprising four nucleotides each. The 2-10-2 gapmer is 14 nucleotides in length, wherein the central gap segment is comprised of ten 2′-deoxynucleotides and is flanked on both sides (in the 5′ and 3′ directions) by wings comprising two nucleotides each. The 3-10-3 gapmer is 16 nucleotides in length, wherein the central gap segment is comprised of ten 2′-deoxynucleotides and is flanked on both sides (in the 5′ and 3′ directions) by wings comprising three nucleotides each. The 4-10-4 gapmer is 18 nucleotides in length, wherein the central gap segment is comprised of ten 2′-deoxynucleotides and is flanked on both sides (in the 5′ and 3′ directions) by wings comprising four nucleotides each. For each of the motifs (3-8-3, 4-8-4, 2-10-2, 3-10-3, and 4-10-4), each nucleotide in the 5′ wing segment and each nucleotide in the 3′ wing segment has a 2′-MOE modification. The internucleoside linkages throughout each gapmer are phosphorothioate (P═S) linkages. All cytidine residues throughout each gapmer are 5-methylcytidines. “Human Target start site” indicates the 5′-most nucleotide to which the gapmer is targeted in the human sequence. “Human Target stop site” indicates the 3′-most nucleotide to which the gapmer is targeted in the human sequence. Each gapmer listed in Table 53 is targeted to SEQ ID NO: 1 (GENBANK Accession No. NM_000128.3). Each gapmer is Table 53 is also fully cross-reactive with the rhesus monkey Factor XI gene sequence, designated herein as SEQ ID NO: 274 (exons 1-15 GENBANK Accession No. NW—001118167.1). ‘Rhesus monkey start site’ indicates the 5′-most nucleotide to which the gapmer is targeted in the rhesus monkey sequence. ‘Rhesus monkey stop site’ indicates the 3′-most nucleotide to which the gapmer is targeted to the rhesus monkey sequence.
The first two listed gapmers in Table 54 are the original gapmers (ISIS 416850 and ISIS 416858) from which the remaining gapmers were designed via microwalk and are designated by an asterisk.

Factor XI mRNA = test: Cynomolgus monkeys, 25 mg/kg: liver Factor XI RNA analysis (Example 30); format: in vivo; conditions: 25 mg/kg s.c.; day 55; liver
Method: (§1) Groups, each consisting of two male and two female monkeys, were injected subcutaneously with 25 mg/kg of ISIS 416850, ISIS 449709, ISIS 445522, ISIS 449710, ISIS 449707, ISIS 449711, ISIS 449708, 416858 and ISIS 445531. Antisense oligonucleotide was administered to the monkeys at 25 mg/kg three times per week for week 1 and 25 mg/kg twice per week for weeks 2 to 8. A control group, consisting of two male and two female monkeys was injected subcutaneously with PBS according to the same dosing regimen. Body weights were taken 14 days and 7 days before the start of treatment and were then measured weekly throughout the treatment period. Blood samples were collected 14 days and 5 days before the start of treatment and subsequently several times during the dosing regimen for measurement of various hematologic factors. On day 55, the monkeys were euthanized by exsanguination while under deep anesthesia, and organs harvested for further analysis.
On day 55, RNA was extracted from liver tissue for real-time PCR analysis of Factor XI using primer probe set LTS00301. Results are presented as percent inhibition of Factor XI, relative to PBS control.

Factor XI protein = test: Cynomolgus monkeys: plasma Factor XI protein ELISA (Example 30); format: in vivo; conditions: 25 mg/kg s.c., plasma ELISA
Method: as §1
Plasma samples from all monkey groups taken on different days were analyzed by a sandwich-style ELISA assay (Affinity Biologicals Inc.) using an affinity-purified polyclonal anti-Factor XI antibody as the capture antibody and a peroxidase-conjugated polyclonal anti-Factor XI antibody as the detecting antibody. Monkey plasma was diluted 1:50 for the assay. Peroxidase activity was expressed by incubation with the substrate o-phenylenediamine. The color produced was quantified using a microplate reader at 490 nm and was considered to be proportional to the concentration of Factor XI in the samples.
The results are presented in Table 148, expressed as percentage reduction relative to that of the PBS control.

| Substance | percent inhibition of Factor XI mRNA (human Factor XI mRNA; electroporation, 375 nM) | percent inhibition of Factor XI mRNA (human Factor XI mRNA; electroporation, 750 nM) | percent inhibition of Factor XI mRNA (human Factor XI mRNA; electroporation, 1,500 nM) | percent inhibition of Factor XI mRNA (human Factor XI mRNA; electroporation, 3,000 nM) | percent inhibition of Factor XI mRNA (human Factor XI mRNA; electroporation, 6,000 nM) | percent inhibition of Factor XI mRNA (human Factor XI mRNA; electroporation, 12,000 nM) | % inhibition of Factor XI mRNA in liver relative to the PBS control (Factor XI mRNA) | Inhibition of Factor XI protein relative to the PBS control (Factor XI protein; Day 10) | Inhibition of Factor XI protein relative to the PBS control (Factor XI protein; Day 17) | Inhibition of Factor XI protein relative to the PBS control (Factor XI protein; Day 24) | Inhibition of Factor XI protein relative to the PBS control (Factor XI protein; Day 31) | Inhibition of Factor XI protein relative to the PBS control (Factor XI protein; Day 38) | Inhibition of Factor XI protein relative to the PBS control (Factor XI protein; Day 45) | Inhibition of Factor XI protein relative to the PBS control (Factor XI protein; Day 52) | Inhibition of Factor XI protein relative to the PBS control (Factor XI protein; Day 55) | Inhibition of Factor XI protein relative to the PBS control (Factor XI protein; Day −5) | Inhibition of Factor XI protein relative to the PBS control (Factor XI protein; Day −14) |
| --- | --- | --- | --- | --- | --- | --- | --- | --- | --- | --- | --- | --- | --- | --- | --- | --- | --- |
| 449707 (antisense e[5mC]*eA*e[5mC]*eA*dG*dT*dT*dT*d[5mC]*dT*dG*dG*e[5mC]*eA*eG*eG) [compound 449707] | 7% | 35% | 63% | 73% | 85% | 91% | 47% | 16% | 19% | 21% | 29% | 28% | 35% | 29% | 32% | 0% | 0% |
| 449708 (antisense eA*e[5mC]*eA*dG*dT*dT*dT*d[5mC]*dT*dG*dG*e[5mC]*eA*eG) [compound 449708] | 0% | 0% | 22% | 33% | 61% | 85% | 46% | 7% | 15% | 3% | 14% | 9% | 2% | 6% | 6% | 0% | 1% |
| 449709 (antisense eG*e[5mC]*eA*e[5mC]*dA*dG*dT*dT*dT*d[5mC]*dT*dG*dG*d[5mC]*eA*eG*eG*e[5mC]) [compound 449709] | 52% | 71% | 80% | 87% | 92% | 95% | 69% | 27% | 35% | 44% | 45% | 46% | 48% | 47% | 50% | 0% | 1% |
| 449710 (antisense e[5mC]*eA*e[5mC]*dA*dG*dT*dT*dT*d[5mC]*dT*dG*dG*d[5mC]*eA*eG*eG) [compound 449710] | 2% | 21% | 52% | 70% | 82% | 87% | 52% | 10% | 14% | 17% | 25% | 20% | 23% | 4% | 24% | 0% | 1% |
| 449711 (antisense eA*e[5mC]*dA*dG*dT*dT*dT*d[5mC]*dT*dG*dG*d[5mC]*eA*eG) [compound 449711] | 6% | 14% | 1% | 7% | 32% | 52% | 0% | 5% | 3% | 6% | 9% | 2% | 4% | 3% | 5% | 1% | 0% |
